# In patent publication US20170210723A1, “MOLECULES HAVING PESTICIDAL UTILITY, AND INTERMEDIATES, COMPOSITIONS, AND PROCESSES, RELATED THERETO” (priority 2016, published 2017):
# Tests used:
# Type in all cases: in vivo
# [1] = tested on: Beet Armyworm (Spodoptera exigua); assay: Bioassays on BAW, 128-well diet tray assay; settings: Spodoptera exigua; for mortality at 50 µg/cm2: 168 h, 50 μg/cm^2 on artificial diet, second instar larvae, five to seven days, read-out: BAW % Control (or Mortality) rating
# [2] = tested on: Cabbage Looper (Trichoplusia ni); assay: Bioassays on CL, 128-well diet tray assay; settings: Trichoplusia ni; for mortality at 50 µg/cm2: 168 h, 50 μg/cm^2 on artificial diet, second instar larvae, five to seven days, read-out: CL % Control (or Mortality) rating
# Procedure, shortened: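 Test molecule at 50 μg/cm^2 applied to the artificial diet surface (acetone-water) and dried; one to five second-instar T. ni larvae per well, eight wells per treatment, held at 25° C., 14:10 light-dark for five to seven days. Percent mortality averaged over wells.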
# [3] = tested on: Yellow Fever Mosquito (Aedes aegypti); assay: Bioassays on Yellow Fever Mosquito larvae, 96-well plate; settings: from 4000 ppm DMSO master plate, about 1 day-old larvae, 3 days
# Procedure, shortened: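 Aedes aegypti larvae about 1 day old, in water with liver powder, exposed in 96-well plates to compounds from a 4000 ppm DMSO master solution diluted in 90:10 water:acetone. Plates covered and held at room temperature for 3 days, then each well scored for mortality; 6 replicate plates.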
# [4] = tested on: Green Peach Aphid (Myzus persicae); assay: Bioassays on Green Peach Aphid, foliar spray on cabbage seedlings; settings: 72 h, 200 ppm spray on cabbage seedlings, three days, Abbott corrected % control, read-out: GPA % Control (or Mortality) rating
# Description: Cabbage seedlings grown in 3-inch pots, with 2-3 small (3-5 cm) true leaves, were used as test substrate. The seedlings were infested with 20-50 GPA (wingless adult and nymph stages) one day prior to chemical application. Four pots with individual seedlings were used for each treatment. Test molecules (2 mg) were dissolved in 2 mL of acetone/methanol (1:1) solvent, forming stock solutions of 1000 ppm test molecule. The stock solutions were diluted 5× with 0.025% Tween 20 in water to obtain the solution at 200 ppm test molecule. A hand-held aspirator-type sprayer was used for spraying a solution to both sides of […] leaves until runoff. Reference plants (solvent check) were sprayed with the diluent only containing 20% by volume of acetone/methanol (1:1) solvent. Treated plants were held in a holding room for three days at approximately 25° C. and ambient relative humidity (RH) prior to grading. Evaluation was conducted by counting the number of live aphids per plant under a microscope. Percent Control was measured by using Abbott's correction formula (W. S. Abbott, “A Method of Computing the Effectiveness of an Insecticide” J. Econ. Entomol. 18 (1925), pp. 265-267) as follows.
# Corrected % Control=100*(X−Y)/X • where • X=No. of live aphids on solvent check plants and • Y=No. of live aphids on treated plants
compound,measurement,setting,value
"C[C@H](CSCC(F)(F)F)NC(=O)c1ccc(/C=C/C(c2cc(Cl)c(Cl)c(Cl)c2)C(F)(F)F)cc1C(F)(F)F (stereo partly drawn) [F22, 4-((E)-4,4,4-trifluoro-3-(3,4,5-trichlorophenyl)but-1-en-1-yl)-N—((R)-1-((2,2,2-trifluoroethyl)thio)propan-2-yl)-2-(trifluoromethyl)benzamide]",mortality at 50 µg/cm2,[1],50 to 100%
same,mortality at 50 µg/cm2,[2],50 to 100%
same,YFM % Control (or Mortality) rating,[3],A (80-100)
same,mortality at 200 ppm,[4],80 to 100%
"CS(=O)(=O)CC[C@@H](NC(=O)c1ccc(/C=C/C(c2cc(Cl)c(Cl)c(Cl)c2)C(F)(F)F)cc1Br)C(=O)NCC(F)(F)F (stereo partly drawn) [F25, 2-bromo-N—((R)-4-(methylsulfonyl)-1-oxo-1-((2,2,2-trifluoroethyl)amino)butan-2-yl)-4-((E)-4,4,4-trifluoro-3-(3,4,5-trichlorophenyl)but-1-en-1-yl)benzamide]",mortality at 50 µg/cm2,[1],50 to 100%
same,mortality at 50 µg/cm2,[2],50 to 100%
same,YFM % Control (or Mortality) rating,[3],A (80-100)
same,mortality at 200 ppm,[4],0 to 80%
"CS(=O)(=O)CC[C@@H](NC(=O)c1ccc(/C=C/C(c2cc(Cl)c(Cl)c(Cl)c2)C(F)(F)F)cc1C(F)(F)F)C(=O)NCC(F)(F)F (stereo partly drawn) [F26, N—((R)-4-(Methylsulfonyl)-1-oxo-1-((2,2,2-trifluoroethyl)amino)butan-2-yl)-4-((E)-4,4,4-trifluoro-3-(3,4,5-trichlorophenyl)but-1-en-1-yl)-2-(trifluoromethyl)benzamide]",mortality at 50 µg/cm2,[1],50 to 100%
same,mortality at 50 µg/cm2,[2],50 to 100%
same,YFM % Control (or Mortality) rating,[3],B (More than 0-Less than 80)
same,mortality at 200 ppm,[4],0 to 80%
"C[C@H](CSCC(F)(F)F)NC(=O)c1ccc(/C=C/C(c2cc(Cl)c(F)c(Cl)c2)C(F)(F)F)cc1C(F)(F)F (stereo partly drawn) [F35, 4-((E)-3-(3,5-Dichloro-4-fluorophenyl)-4,4,4-trifluorobut-1-en-1-yl)-N—((R)-1-((2,2,2-trifluoroethyl)thio)propan-2-yl)-2-(trifluoromethyl)benzamide]",mortality at 50 µg/cm2,[1],50 to 100%
same,mortality at 50 µg/cm2,[2],50 to 100%
same,YFM % Control (or Mortality) rating,[3],A (80-100)
same,mortality at 200 ppm,[4],0 to 80%
"C[C@H](CSCC(F)(F)F)NC(=O)c1ccc(/C=C/C(c2cc(Cl)c(Cl)c(Cl)c2)C(F)(F)F)cc1Br (stereo partly drawn) [F38, 2-Bromo-4-((E)-4,4,4-trifluoro-3-(3,4,5-trichlorophenyl)but-1-en-1-yl)-N-((R)-1-((2,2,2-trifluoroethyl)thio)propan-2-yl)benzamide]",mortality at 50 µg/cm2,[1],50 to 100%
same,mortality at 50 µg/cm2,[2],50 to 100%
same,YFM % Control (or Mortality) rating,[3],A (80-100)
same,mortality at 200 ppm,[4],0 to 80%
"C[C@H](C[S+]([O-])CC(F)(F)F)NC(=O)c1ccc(/C=C/C(c2cc(Cl)c(F)c(Cl)c2)C(F)(F)F)cc1Br (stereo partly drawn) [F49, 2-Bromo-4-((E)-3-(3,5-dichloro-4-fluorophenyl)-4,4,4-trifluorobut-1-en-1-yl)-N-((2R)-1-((2,2,2-trifluoroethyl)sulfinyl)propan-2-yl)benzamide]",mortality at 50 µg/cm2,[1],50 to 100%
same,mortality at 50 µg/cm2,[2],50 to 100%
same,YFM % Control (or Mortality) rating,[3],A (80-100)
same,mortality at 200 ppm,[4],0%
"C[C@H](CSCC(F)(F)F)NC(=O)c1ccc(/C=C/C(c2cc(Br)cc(Br)c2)C(F)(F)F)cc1C(F)(F)F (stereo partly drawn) [F56, 4-((E)-3-(3,5-Dibromophenyl)-4,4,4-trifluorobut-1-en-1-yl)-N—((R)-1-((2,2,2-trifluoroethyl)thio)propan-2-yl)-2-(trifluoromethyl)benzamide]",mortality at 50 µg/cm2,[1],50 to 100%
same,mortality at 50 µg/cm2,[2],50 to 100%
same,YFM % Control (or Mortality) rating,[3],A (80-100)
same,mortality at 200 ppm,[4],0%
"C[C@H](CS(=O)(=O)CC(F)(F)F)NC(=O)c1ccc(/C=C/C(c2cc(Cl)c(Cl)c(Cl)c2)C(F)(F)F)cc1Cl (stereo partly drawn) [F58, 2-Chloro-4-((E)-4,4,4-trifluoro-3-(3,4,5-trichlorophenyl)but-1-en-1-yl)-N—((R)-1-((2,2,2-trifluoroethyl)sulfonyl)propan-2-yl)benzamide]",mortality at 50 µg/cm2,[1],50 to 100%
same,mortality at 0.05 µg/cm2,"[1]; 0.05 μg/cm^2, read-out: BAW Percent control (or mortality)",100%
same,mortality at 0.5 µg/cm2,"[1]; 0.5 μg/cm^2, read-out: BAW Percent control (or mortality)",100%
same,mortality at 5 µg/cm2,"[1]; 5 μg/cm^2, read-out: BAW Percent control (or mortality)",100%
same,mortality at 50 µg/cm2,[2],50 to 100%
same,mortality at 0.05 µg/cm2,"[2]; 0.05 μg/cm^2, read-out: CL Percent control (or mortality)",100%
same,mortality at 0.5 µg/cm2,"[2]; 0.5 μg/cm^2, read-out: CL Percent control (or mortality)",100%
same,mortality at 5 µg/cm2,"[2]; 5 μg/cm^2, read-out: CL Percent control (or mortality)",100%
same,YFM % Control (or Mortality) rating,[3],A (80-100)
same,mortality at 200 ppm,[4],0%
"C[C@H](CS(=O)(=O)CC(F)(F)F)NC(=O)c1ccc(/C=C/C(c2cc(Br)c(Cl)c(Br)c2)C(F)(F)F)cc1C(F)(F)F (stereo partly drawn) [F59, 4-((E)-3-(3,5-Dibromo-4-chlorophenyl)-4,4,4-trifluorobut-1-en-1-yl)-N—((R)-1-((2,2,2-trifluoroethyl)sulfonyl)propan-2-yl)-2-(trifluoromethyl)benzamide]",mortality at 50 µg/cm2,[1],50 to 100%
same,mortality at 50 µg/cm2,[2],50 to 100%
same,mortality at 200 ppm,[4],0%
"CCS(=O)(=O)C[C@@H](C)NC(=O)c1ccc(/C=C/C(c2cc(Cl)c(Cl)c(Cl)c2)C(F)(F)F)cc1C(F)(F)F (stereo partly drawn) [F68, N—((R)-1-(Ethylsulfonyl)propan-2-yl)-4-((E)-4,4,4-trifluoro-3-(3,4,5-trichlorophenyl)but-1-en-1-yl)-2-(trifluoromethyl)benzamide]",mortality at 50 µg/cm2,[1],50 to 100%
same,mortality at 50 µg/cm2,[2],50 to 100%
same,YFM % Control (or Mortality) rating,[3],A (80-100)
same,mortality at 200 ppm,[4],0 to 80%
"CCC[S+]([O-])C[C@@H](C)NC(=O)c1ccc(/C=C/C(c2cc(Cl)c(Cl)c(Cl)c2)C(F)(F)F)cc1C(F)(F)F (stereo partly drawn) [F111, N-((2R)-1-(Propylsulfinyl)propan-2-yl)-4-((E)-4,4,4-trifluoro-3-(3,4,5-trichlorophenyl)but-1-en-1-yl)-2-(trifluoromethyl)benzamide]",mortality at 50 µg/cm2,[1],50 to 100%
same,mortality at 50 µg/cm2,[2],50 to 100%
same,YFM % Control (or Mortality) rating,[3],A (80-100)
same,mortality at 200 ppm,[4],0 to 80%
"C[C@H](CSCCF)NC(=O)c1ccc(/C=C/C(c2cc(Cl)c(Cl)c(Cl)c2)C(C)(F)F)cc1C(F)(F)F (stereo partly drawn) [F119, 4-((E)-4,4-Difluoro-3-(3,4,5-trichlorophenyl)pent-1-en-1-yl)-N—((R)-1-((2-fluoroethyl)thio)propan-2-yl)-2-(trifluoromethyl)benzamide]",mortality at 50 µg/cm2,[1],50 to 100%
same,mortality at 50 µg/cm2,[2],50 to 100%
same,YFM % Control (or Mortality) rating,[3],A (80-100)
same,mortality at 200 ppm,[4],0 to 80%
"C[C@H](CS(=O)(=O)CC(F)(F)F)NC(=O)c1ccc(/C=C/C(c2cc(Cl)cc(Cl)c2)C(C)(F)F)cc1C(F)(F)F (stereo partly drawn) [F134, 4-((E)-3-(3,5-Dichlorophenyl)-4,4-difluoropent-1-en-1-yl)-N—((R)-1-((2,2,2-trifluoroethyl)sulfonyl)propan-2-yl)-2-(trifluoromethyl)benzamide]",mortality at 50 µg/cm2,[1],50 to 100%
same,mortality at 50 µg/cm2,[2],50 to 100%
same,YFM % Control (or Mortality) rating,[3],A (80-100)
